The values below are quoted from earlier work in US20110071026A1, “LOW VISCOSITY, AQUEOUS […] CONCENTRATES” (priority 2009, published 2011).

For this data set the following is noted: at 25° C.; acid form.

For the compound `O=C(O)CNCP(=O)(O)O` [glyphosate, N-(phosphonomethyl)glycine], the solubility in water entry is on record as “about 12 g/L”.
